Test [1] relates to plasmid nucleic acid pRSVLuc. In words: Surface plasmon resonance (BIAcore) binding kinetics of peptides/conjugates to immobilized biotinylated plasmid DNA. To be noted: for ka: apparent rate constant for association; for Kd: read-out: equilibrium dissociation constant KD. In general terms: SPR reads the build-up and loss of mass on a sensor chip optically.
For test [2], the system named is Jurkat cell line. The test is described as follows: In vitro transfection with pRSVLuc (luciferase) condensed on peptides. To be noted: peptide 2 μg/μg plasmid DNA, luciferase after 24 h, FIG. 7. Type of test: cell-based. Here is the method:
After incubation the cells are lysed and are assayed for gene expression. In the case of the luciferase reporter gene, luciferin and ATP are added to lysed cells and the light emitted is measured with a luminometer (see deWet et al., supra).
Cell lines such as Jurkat and K562 grow in suspension and can be transfected and the level of transgene expression (luciferase activity) determined b) the following method. Cells are harvested on the day of assay by centrifugation at 1200 rpm for 5 mins at room temperature. The cell pellet is resuspended in phosphate buffered saline and re-centrifuged. This operation is performed twice. […] The cells are then aliquoted into tubes and 0.75 ml of RPMI medium added, followed by 0.04-0.08 ml of 100 mM Chloroquine and finally 0.25 ml of DNA-complex solution. The transfection is then allowed to proceed by incubating the cells at 37° C. for 4 h. After this time the cells are harvested by centrifugation at 2000 rpm. The cells are then suspended in 1 ml of RPMI medium and re-centrifuged. Finally the cells are suspended in 0.5 ml RPMI medium containing 10% foetal bovine serum. Each 0.5 ml of transfected cell suspension is transferred to a well of a 12 well plastic culture plate containing 1.5 ml of RPMI 10% FBS. The original transfection tube is rinsed with a further 1 ml of medium and the wash transferred to the culture dish making a final volume of 3 ml. The culture plate is then incubated at 37° C. for 24-90 h in an atmosphere of 5% CO2. The contents of each well in the culture dish are transferred to centrifuge tubes and the cells collected by centrifugation at 13000 rpm. The pellet is resuspended in 0.12 ml of Lysis Buffer (100 mM sodium phosphate, pH 7.8; 8 mM magnesium chloride, 1 mM EDTA; 1% Triton X-100 and 15% glycerol) and agitated with a pipette. The lysate is centrifuged at 13000 rpm for 1 min and the supernatant collected. 80 μl of the supernatant are transferred to a luminometer tube. The luciferase activity is then assayed using a Berthold Lumat L9501 luminometer. The assay buffer used is Lysis Buffer containing 10 mM Luciferin and 100 mM ATP. Light produced by the luciferase is integrated over 4s and is described as relative light units (RLU). The data are converted to RLU/ml of lysate, RLU/cell or RLU/mg protein (protein concentration of the lysate having been determined in this case by the BioRAD Lowry assay.
In order to compare the relative efficiency of transfection of complexes composed of different NBC condensation peptides or poly-L-lysine, pRSVLuc DNA at a concentration of 100 μg/ml was condensed using peptide at a ratio of 2 μg/μg plasmid DNA as described herein with the following deviation: prior to addition to the cells (Jurkat cell line) the complexes were diluted to 20 μg/ml with 10% PEG 10 000; 37 mM sodium chloride; 25 mM sodium phosphate, pH 7.4. The cells were assayed for luciferase after 24 h.

Read-outs that look alike come from different tables or passages of the source. * marks the point of attachment. Acm = CC(=O)NC*

By Kd is commonly meant the concentration at which binding is half-saturated. For the substance “NH2-TKKAWKKAEKKAAKKCGVSAKKAAKKAWKKA-CONH2 (H-TKKAWKKAEKKAAKKCGVSAKKAAKKAWKKA-NH2) [NBC11]”, the ka in test [1] (SPR, PBS, 25° C.) stood at 20700 M⁻¹ s⁻¹. Besides, in test [1] (approximate value, unit inferred), the Kd was approximately 0.5 nM. In addition, the “apparent dissociation constant kd” value in test [1] (approximate values) is on record as “approximately 1.6×10^-4 sec^-1”. Also, the association reaction result in test [1] (shape of association kinetics) is listed as “clear biphasic kinetics”. In test [2], the “rank in order of relative transfection efficiency (most to least efficient)” value was “NBC11>NBC13>NBC8>>NBC15>>>polylysine”.
Regarding “NH2-KKSPKKAKKPAAKKSPKKAKKPAYC(Acm)-COOH (H-KKSPKKAKKPAAKKSPKKAKKPAYC(Acm)-OH; SMILES CC(=O)NCSC[C@H](NC(=O)[C@H](Cc1ccc(O)cc1)NC(=O)[C@H](C)NC(=O)[C@@H]1CCCN1C(=O)[C@H](CCCCN)NC(=O)[C@H](CCCCN)NC(=O)[C@H](C)NC(=O)[C@H](CCCCN)NC(=O)[C@H](CCCCN)NC(=O)[C@@H]1CCCN1C(=O)[C@H](CO)NC(=O)[C@H](CCCCN)NC(=O)[C@H](CCCCN)NC(=O)[C@H](C)NC(=O)[C@H](C)NC(=O)[C@@H]1CCCN1C(=O)[C@H](CCCCN)NC(=O)[C@H](CCCCN)NC(=O)[C@H](C)NC(=O)[C@H](CCCCN)NC(=O)[C@H](CCCCN)NC(=O)[C@@H]1CCCN1C(=O)[C@H](CO)NC(=O)[C@H](CCCCN)NC(=O)[C@@H](N)CCCCN)C(=O)O) [NBC8]”, the ka in test [1] (SPR, PBS, 25° C.) is 50000 M⁻¹ s⁻¹. The kd in test [1] (apparent rate constant for dissociation, SPR, PBS, 25° C.) is 0.06248 s⁻¹. Also, in test [1] (approximate values), the “apparent dissociation constant kd” value is given as “approximately 1×10^-2 sec^-1” and the Kd was approximately 1000 nM. Also, the “rank in order of relative transfection efficiency (most to least efficient)” value in test [2] is given as “NBC11>NBC13>NBC8>>NBC15>>>polylysine”.

For the origin of these results see patent US6218112A, “Optimization of gene delivery and gene delivery system” (Cobra Therapeutics Limited, priority 1997, dated 2001).
